Experimental data: PMC4498814, “Genetic Evidence for Function of the bHLH-PAS Protein Gce/Met As a Juvenile Hormone Receptor” (PLoS Genetics, 2015)
Read-outs that look alike come from different tables or passages of the source.

Experiments:
[1] = molecular target: T1, Gce (germ cell-expressed) (Drosophila melanogaster, UniProt Q9VXW7); experiment: [3H]JH III radioligand saturation binding, dextran-coated charcoal assay
T1 construct: amino acids 1–689, translated in vitro
T1 sequence (Q9VXW7 269-959): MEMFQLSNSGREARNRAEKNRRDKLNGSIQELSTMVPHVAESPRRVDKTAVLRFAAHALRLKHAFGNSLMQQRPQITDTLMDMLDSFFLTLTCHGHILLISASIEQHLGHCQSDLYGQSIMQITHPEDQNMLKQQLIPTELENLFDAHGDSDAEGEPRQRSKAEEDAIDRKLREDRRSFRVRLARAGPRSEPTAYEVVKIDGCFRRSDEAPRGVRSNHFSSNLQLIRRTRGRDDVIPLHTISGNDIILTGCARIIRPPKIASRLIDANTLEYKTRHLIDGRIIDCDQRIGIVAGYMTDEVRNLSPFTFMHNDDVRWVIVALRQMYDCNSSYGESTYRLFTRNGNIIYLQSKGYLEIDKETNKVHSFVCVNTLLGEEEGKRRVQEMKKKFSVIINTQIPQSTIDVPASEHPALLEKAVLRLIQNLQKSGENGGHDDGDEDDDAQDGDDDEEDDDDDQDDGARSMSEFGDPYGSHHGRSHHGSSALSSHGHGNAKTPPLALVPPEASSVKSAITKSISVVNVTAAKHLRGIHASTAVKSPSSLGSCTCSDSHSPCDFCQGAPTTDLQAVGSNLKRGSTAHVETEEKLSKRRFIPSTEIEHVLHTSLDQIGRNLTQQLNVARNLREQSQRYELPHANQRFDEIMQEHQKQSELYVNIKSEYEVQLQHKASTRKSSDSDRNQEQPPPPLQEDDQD

[2] = molecular target: T2, Met (Methoprene-tolerant) (Drosophila melanogaster, UniProt Q9VYW2); experiment: JHRE-luc reporter in S2 cells with endogenous Met and Gce depleted; pocket mutants inactive; type: cell-based
T2 construct: amino acids 1–716, FLAG-tagged, expressed in S2 cells
T2 sequence (Q9VYW2 1-716): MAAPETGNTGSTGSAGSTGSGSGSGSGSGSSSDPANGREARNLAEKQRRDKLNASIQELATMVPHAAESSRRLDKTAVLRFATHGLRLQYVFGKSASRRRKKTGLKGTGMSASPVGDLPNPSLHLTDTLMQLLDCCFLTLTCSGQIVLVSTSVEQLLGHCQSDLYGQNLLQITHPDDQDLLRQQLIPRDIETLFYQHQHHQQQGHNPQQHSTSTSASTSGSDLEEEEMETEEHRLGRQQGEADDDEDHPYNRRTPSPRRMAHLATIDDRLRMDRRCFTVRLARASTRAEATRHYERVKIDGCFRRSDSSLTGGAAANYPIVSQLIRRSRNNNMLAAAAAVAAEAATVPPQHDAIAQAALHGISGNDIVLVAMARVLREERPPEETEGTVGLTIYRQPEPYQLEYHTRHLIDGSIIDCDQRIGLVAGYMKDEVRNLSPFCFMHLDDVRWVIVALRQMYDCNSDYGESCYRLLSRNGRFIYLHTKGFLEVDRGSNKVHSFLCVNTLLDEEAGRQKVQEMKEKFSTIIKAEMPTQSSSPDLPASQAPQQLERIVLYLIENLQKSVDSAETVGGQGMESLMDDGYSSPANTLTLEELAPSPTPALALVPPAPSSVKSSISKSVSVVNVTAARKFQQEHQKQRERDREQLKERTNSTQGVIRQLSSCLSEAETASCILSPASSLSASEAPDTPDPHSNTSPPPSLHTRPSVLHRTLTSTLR

[3] = molecular target: T1, Gce (germ cell-expressed); experiment: competition radioligand binding against [3H]JH III, dextran-coated charcoal assay

Row | Ki ([3]; read-out: Ki) | SMILES | Ki [3] | other results
1 | – | COC(=O)/C=C(\C)CC/C=C(\C)CCC1OC1(C)C (racemic) [JH III] | – | Kd [1]: 0.0193 ± 0.0045 µM; JHRE-luc reporter activity [2]: Like Gce, Met but not its mutated versions, mediated induction of JHRE-luc by JH III (Fig 3C)
2 | – | COC(C)(C)CCC[C@H](C)C/C=C/C(C)=C/C(=O)OC(C)C (racemic) [methoprene] | 0.0458 ± 0.0289 µM | –
3 | 8.1 ± 2.4 µM | CC(C)=CCC/C(C)=C/CC/C(C)=C/CO [farnesol] | – | –
4 | 0.0879 ± 0.0222 µM | COC(=O)/C=C(\C)CC/C=C(\C)CCC=C(C)C [methyl farnesoate] | – | –
5 | – | CC(COc1ccc(Oc2ccccc2)cc1)Oc1ccccn1 (stereo not drawn) [pyriproxyfen] | 0.0057 ± 0.0028 µM | –
